This note sets out measurements from patent US8883782B2, “Spiro-tetracyclic ring compounds as beta-secretase modulators and methods of use” (Amgen Inc., priority 2010, dated 2014).

In test [1] the test system is Aβ40 in conditioned medium of cells stably expressing Amyloid Precursor Protein (APP). The test can be described thus: In vitro BACE cell-based assay (Aβ40 in conditioned medium, sandwich ELISA). The conditions noted are these: read-out: HEK cell assay. In outline:
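The sandwich ELISA pairs pAb40 capture (3 h, 4 °C) with 6E10 detection (2 h, 4 °C) and a streptavidin-europium TRF read-out. Supernatants come from APP-expressing cells grown in 10% FBS DMEM.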
In general terms: An ELISA detects its analyte on a solid surface through an enzyme-linked reagent.

Test [2] addresses Beta Secretase enzyme (BACE) (Homo sapiens, UniProt P56817). The test can be described thus: In vitro enzymatic BACE FRET (fluorescence resonance energy transfer) assay. Particulars: average IC50, enzyme assay; read-out: BACE 1 FRET assay. The test is classed as biochemical. The procedure, abridged:
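A peptide bearing a fluorophore and quencher across the cleavage site serves as substrate at 50 nM. Reactions proceed one hour in acidic acetate buffer (0.05 M, pH 4.2) containing 10% DMSO final and 100 uM genapol, then are terminated with Tris and read fluorimetrically.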

Setting [3] is: Homo sapiens, HEK293, average IC50, HEK cells.
Where [4] appears, read: Homo sapiens, HEK293, average IC50.

Where two headings read alike, the source gives them in different places.

Sequence of Beta Secretase enzyme (BACE) (P56817 46-501, species assumed): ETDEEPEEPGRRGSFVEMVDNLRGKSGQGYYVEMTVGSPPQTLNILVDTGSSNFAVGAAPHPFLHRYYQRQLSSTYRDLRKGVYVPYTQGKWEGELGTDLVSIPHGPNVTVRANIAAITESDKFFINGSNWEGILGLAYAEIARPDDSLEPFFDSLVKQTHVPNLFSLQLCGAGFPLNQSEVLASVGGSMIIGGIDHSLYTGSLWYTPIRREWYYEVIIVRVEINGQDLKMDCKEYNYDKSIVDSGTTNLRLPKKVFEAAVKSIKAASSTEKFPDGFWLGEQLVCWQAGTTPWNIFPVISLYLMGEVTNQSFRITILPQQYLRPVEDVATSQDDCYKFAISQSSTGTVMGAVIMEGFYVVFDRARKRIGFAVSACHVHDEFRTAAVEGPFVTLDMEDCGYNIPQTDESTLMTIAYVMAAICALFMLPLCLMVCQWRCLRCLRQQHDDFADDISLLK

As for `NC1=N[C@@]2(CO1)c1cc(-c3cccnc3)ccc1Oc1c(F)cc(-n3cccn3)cc12` [Example 684, (4S)-4′-fluoro-2′-(1H-pyrazol-1-yl)-7′-(3-pyridyl)spiro[1,3-oxazole-4,9′-xanthen]-2-amine], the IC50 was found to be 34 nM in test [1] (setting [3]) and 3.8 nM in test [2].
Consider `NC1=N[C@@]2(CO1)c1cc(-c3cccnc3F)ccc1Oc1c2cc(C#Cc2cccnc2)nc1F` [Example 748, (5S)-1-fluoro-7-(2-fluoro-3-pyridinyl)-3-(3-pyridinylethynyl)spiro[chromeno[2,3-c]pyridine-5,4′-[1,3]oxazol]-2′-amine], for which the figures for the IC50 in test [1] (setting [4]) and in test [2] were 74 nM and 0.4 nM, respectively.
Turning to `CC1(C)CC(c2ccc3c(c2)[C@]2(COC(N)=N2)c2cc(-c4cncnc4)c(F)cc2O3)=CCO1` [Example 505, (4R)-7′-(2,2-dimethyl-3,6-dihydro-2H-pyran-4-yl)-3′-fluoro-2′-(5-pyrimidinyl)spiro[1,3-oxazole-4,9′-xanthen]-2-amine], the IC50 is 12.5 nM in test [1] (setting [3]) and 2.6 nM in test [2].
Taken in the same sequence, the figures for `NC1=N[C@@]2(CO1)c1cc(-c3c(F)ccnc3F)ccc1Oc1cnc([C@@H]3CCCOC3)cc12` [Example 912, (5S)-7-(2,4-difluoro-3-pyridinyl)-3-((3S)-tetrahydro-2H-pyran-3-yl)spiro[chromeno[2,3-c]pyridine-5,4′-[1,3]oxazol]-2′-amine] were 338 nM and 25.1 nM.
As to `CC#Cc1cncc(-c2ccc3c(c2)[C@@]2(COC(N)=N2)c2cc(-c4ccncc4)nc(F)c2O3)c1` [Example 739, (5S)-1-fluoro-7-(5-(1-propyn-1-yl)-3-pyridinyl)-3-(4-pyridinyl)spiro[chromeno[2,3-c]pyridine-5,4′-[1,3]oxazol]-2′-amine], the IC50 in test [1] (setting [4]) was determined as 5 nM; in test [2], 0.5 nM.
The like results for `CC1(C#Cc2cnc3c(c2)[C@]2(COC(N)=N2)c2c(ccc(-c4ccc(F)nc4)c2F)O3)COC1` [Example 342, (5R)-6-fluoro-7-(6-fluoro-3-pyridinyl)-3-((3-methyl-3-oxetanyl)ethynyl)spiro[chromeno[2,3-b]pyridine-5,4′-[1,3]oxazol]-2′-amine] were, in that order, 16 nM and 2.4 nM.
For `Cc1nc(F)ccc1-c1ccc2c(c1)[C@@]1(COC(N)=N1)c1cc(C3=CCOCC3)ncc1O2` [Example 251, (5S)-3-(3,6-dihydro-2H-pyran-4-yl)-7-(6-fluoro-2-methyl-3-pyridinyl)spiro[chromeno[2,3-c]pyridine-5,4′-[1,3]oxazol]-2′-amine], the IC50 was determined as 271 nM in test [1] (setting [4]) and 26.8 nM in test [2].
Turning to `CC1(C#Cc2cnc3c(c2)[C@]2(COC(N)=N2)c2cc(-c4cncc(F)c4)ccc2O3)COC1` [Example 458, (5S)-7-(5-fluoro-3-pyridinyl)-3-((3-methyl-3-oxetanyl)ethynyl)spiro[chromeno[2,3-b]pyridine-5,4′-[1,3]oxazol]-2′-amine], the IC50 in test [1] (setting [3]) was 5.1 nM; in test [2], 1.2 nM.
The like results for `Cc1ccnc(F)c1-c1ccc2c(c1)[C@@]1(COC(N)=N1)c1cc(N3CCOC(C)(C)C3)cnc1O2` [Example 482, (5S)-3-(2,2-dimethyl-4-morpholinyl)-7-(2-fluoro-4-methyl-3-pyridinyl)spiro[chromeno[2,3-b]pyridine-5,4′-[1,3]oxazol]-2′-amine] were, in that order, 14.4 nM and 3.4 nM.
On to `NC1=N[C@@]2(CO1)c1cc(-c3cnccn3)ccc1Oc1c(F)cc(OCC3CCOCC3)cc12` [Example 270, (4S)-4′-fluoro-7′-(2-pyrazinyl)-2′-(tetrahydro-2H-pyran-4-ylmethoxy)spiro[1,3-oxazole-4,9′-xanthen]-2-amine], for which the IC50 in test [1] (setting [4]) was found to be 33.6 nM; in test [2] it was 5.4 nM.
As to `NC1=N[C@@]2(CS1)c1cc(-c3cncnc3)c(F)cc1Oc1c(F)cc(N3CCOCC3)cc12` [Example 888, (4S)-3′,5′-difluoro-7′-(4-morpholinyl)-2′-(5-pyrimidinyl)spiro[1,3-thiazole-4,9′-xanthen]-2-amine], the figures for the IC50 in test [1] (setting [3]) and in test [2] were 10 nM and 2.1 nM, respectively.
The like results for `COc1ccnc(F)c1-c1ccc2c(c1)[C@@]1(COC(N)=N1)c1cc(Cl)ncc1O2` [Example 680, (5S)-3-chloro-7-(2-fluoro-4-methoxy-3-pyridinyl)spiro[chromeno[2,3-c]pyridine-5,4′-[1,3]oxazol]-2′-amine] were, in that order, 806 nM and 15.3 nM.
With “(4R)-4′-fluoro-2′-methoxy-7′-(5-pyrimidinyl)spiro[1,3-thiazole-4,9′-xanthen]-2-amine [Example 215]”, the IC50 in test [1] (average IC50) came to 113 nM; in test [2], 8.1 nM.
With `COc1ccc(-c2cc(F)c3c(c2)[C@]2(COC(N)=N2)c2cc(-c4cccnc4F)ccc2O3)nn1` [Example 275, (4S)-4′-fluoro-7′-(2-fluoro-3-pyridinyl)-2′-(6-methoxy-3-pyridazinyl)spiro[1,3-oxazole-4,9′-xanthen]-2-amine], the results for the IC50 in test [1] (setting [4]) and in test [2] were 8 nM and 0.7 nM, respectively.
Take `N#Cc1cccc(-c2ccc3c(c2)[C@@]2(COC(N)=N2)c2cc(C4=CCOCC4)cnc2O3)c1` [Example 169, 3-((5S)-2′-amino-3-(3,6-dihydro-2H-pyran-4-yl)spiro[chromeno[2,3-b]pyridine-5,4′-[1,3]oxazol]-7-yl)benzonitrile]: the IC50 in test [1] (setting [4]) stood at 4.5 nM; in test [2], 1.3 nM.
Take `COc1ncc(-c2ccc3c(c2)[C@@]2(COC(N)=N2)c2cc(N4CC[C@@H](F)C4)ncc2O3)cn1` [Example 417, (5S)-3-((3R)-3-fluoro-1-pyrrolidinyl)-7-(2-methoxy-5-pyrimidinyl)spiro[chromeno[2,3-c]pyridine-5,4′-[1,3]oxazol]-2′-amine]: the values for the IC50 in test [1] (setting [3]) and in test [2] were 336 nM and 84.5 nM, respectively.
Taken in the same sequence, the figures for `COc1ccc(F)c(-c2ccc3c(c2)[C@@]2(COC(N)=N2)c2cc(N4CCOC(C)(C)C4)cnc2O3)c1` [Example 481, (5S)-3-(2,2-dimethyl-4-morpholinyl)-7-(2-fluoro-5-methoxyphenyl)spiro[chromeno[2,3-b]pyridine-5,4′-[1,3]oxazol]-2′-amine] were 19.2 nM and 2.7 nM.
The like results for `NC1=N[C@]2(CO1)c1cc(-c3cccnc3F)ccc1Oc1nc(F)c(C3=CCCOC3)cc12` [Example 902, (5R)-3-(5,6-dihydro-2H-pyran-3-yl)-2-fluoro-7-(2-fluoro-3-pyridinyl)spiro[chromeno[2,3-b]pyridine-5,4′-[1,3]oxazol]-2′-amine] were, in that order, 3220 nM and 137 nM.
As for `NC1=N[C@@]2(CS1)c1cc(-c3cncc(F)c3)ccc1Oc1cnc(C3=CCOCC3)cc12` [Example 619, (5S)-3-(3,6-dihydro-2H-pyran-4-yl)-7-(5-fluoro-3-pyridinyl)spiro[chromeno[2,3-c]pyridine-5,4′-[1,3]thiazol]-2′-amine], the IC50 in test [1] (average IC50, HEK cells) worked out at 8 nM; in test [2], 0.4 nM.
As to `NC1=N[C@@]2(CO1)c1cc(-c3cc(C4=CCOCC4)cnc3F)ccc1Oc1cnc(C3=CCOCC3)cc12` [Example 362, (5S)-3-(3,6-dihydro-2H-pyran-4-yl)-7-(5-(3,6-dihydro-2H-pyran-4-yl)-2-fluoro-3-pyridinyl)spiro[chromeno[2,3-c]pyridine-5,4′-[1,3]oxazol]-2′-amine], the results for the IC50 in test [1] (setting [4]) and in test [2] were 114 nM and 6.3 nM, respectively.
Turning to `CC(C)(C)C#Cc1cc2c(nc1F)Oc1ccc(-c3cccnc3F)cc1[C@]21COC(N)=N1` [Example 674, (5R)-3-(3,3-dimethyl-1-butyn-1-yl)-2-fluoro-7-(2-fluoro-3-pyridinyl)spiro[chromeno[2,3-b]pyridine-5,4′-[1,3]oxazol]-2′-amine], the IC50 was 2810 nM in test [1] (setting [3]) and 239 nM in test [2].
Taken in the same sequence, the figures for `CC(C)(C)COc1ccc2c(c1)[C@@]1(COC(N)=N1)c1cc(C3=CCOC(C)(C)C3)cnc1O2` [Example 504, (5S)-3-(2,2-dimethyl-3,6-dihydro-2H-pyran-4-yl)-7-(2,2-dimethylpropoxy)spiro[chromeno[2,3-b]pyridine-5,4′-[1,3]oxazol]-2′-amine] were 29.7 nM and 7.6 nM.
As to `NC1=N[C@@]2(CO1)c1cc(-c3cccnc3F)ccc1Oc1c(F)cc(-c3ccc(F)nc3)cc12` [Example 640, (4S)-4′-fluoro-7′-(2-fluoro-3-pyridinyl)-2′-(6-fluoro-3-pyridinyl)spiro[1,3-oxazole-4,9′-xanthen]-2-amine], the IC50 turned out to be 23 nM in test [1] (setting [3]) and 1.2 nM in test [2].
With `CC1(C#Cc2cnc3c(c2)[C@]2(COC(N)=N2)c2cc(-c4cc(Cl)cnc4F)ccc2O3)COC1` [Example 456, (5S)-7-(5-chloro-2-fluoro-3-pyridinyl)-3-((3-methyl-3-oxetanyl)ethynyl)spiro[chromeno[2,3-b]pyridine-5,4′-[1,3]oxazol]-2′-amine], the values for the IC50 in test [1] (setting [3]) and in test [2] were 2.2 nM and 0.6 nM, respectively.
As for `Cc1ccnn1-c1cnc2c(c1)[C@]1(COC(N)=N1)c1cc(-c3cccnc3F)ccc1O2` [Example 1020, (5S)-7-(2-fluoro-3-pyridinyl)-3-(5-methyl-1H-pyrazol-1-yl)spiro[chromeno[2,3-b]pyridine-5,4′-[1,3]oxazol]-2′-amine], the values for the IC50 in test [1] (setting [4]) and in test [2] were 851 nM and 16.5 nM, respectively.
Turning to `COc1ccnc(F)c1-c1ccc2c(c1)[C@@]1(COC(N)=N1)c1cc(C3=CCOCC3)ncc1O2` [Example 612, (5S)-3-(3,6-dihydro-2H-pyran-4-yl)-7-(2-fluoro-4-methoxy-3-pyridinyl)spiro[chromeno[2,3-c]pyridine-5,4′-[1,3]oxazol]-2′-amine], the values for the IC50 in test [1] (setting [3]) and in test [2] were 3 nM and 0.6 nM, respectively.
